Experimental data from patent US20110135742A1, “CONTROLLED RELEASE ENCAPSULATED ANTI-BACTERIAL AND ANTI-INFLAMMATORY NANOPARTICLES” (The Regents of the University of California, priority 2006, published 2011).

Assays:
[1] = recorded, background statement; cited from earlier work
P. acnes [2] = assay: CFU assay against P. acnes; format: cell-based; conditions: FIG. 4
IL-12p40 = assay: P. acnes stimulated IL-12p40 production by primary human monocytes; format: cell-based; conditions: primary human monocytes stimulated with P. acnes; dilutions 1, 10^-1, 10^-2; FIG. 5
eukaryotic cells = assay: MTT assay; format: cell-based; conditions: FIG. 6
P. acnes [3] = assay: Scanning electron microscopy of P. acnes; format: cell-based; conditions: FIG. 7

Row | Compound | success as acne medication [1] | killing of P. acnes, benzoyl peroxide un-encapsulated or nanoparticle encapsulated (P. acnes [2]) | inhibition of IL-12p40 production (IL-12p40) | toxicity to eukaryotic cells (eukaryotic cells) | physical changes in the bacteria, compared with control (P. acnes [3])
1 | CC1=C(/C=C/C(C)=C/C=C/C(C)=C\C(=O)O)C(C)(C)CCC1 [Isotretinoin] | 80-90% | – | – | – | –
2 | O=C(OOC(=O)c1ccccc1)c1ccccc1 [benzoyl peroxide] | – | kills bacteria | inhibited | not toxic | destroy the bacteria and kill P. acnes
